Tests used:
WM9 cells = assay: WM9 melanoma cell growth, MTT assay; assay type: cell-based, human
Description: For cell proliferation assays, cells were grown in 10% FCS culture medium containing various amounts of IFNs and/or sodium stibogluconate in 96 well plates and cultured at 37° C. for 3 or 6 days as indicated. The numbers of viable cells in proliferation assays were determined by MTT assays as described in Phatak et al., J. Immunol. 167, 3391 (2001).
Dose response curves were generated for each drug alone, and also the combinations. Median effect plots were generated for IFNs alone, sodium stibogluconate alone, and the combination. The combination index (CI) was determined and plotted vs. fraction affected (FA). Data were analyzed in both modes, mutually exclusive and mutually nonexclusive. The interaction between two mutually nonexclusive drugs is described by the Equation CI=D1/Dx1+D2/Dx2+D1D2/Dx1Dx2, where Dx1 and Dx2 are the doses of drug 1 and drug 2 that are required to inhibit growth x %. […] When CI<1, drugs are synergistic, when CI=1, drugs are additive, and when CI>1, drugs are antagonistic.
Renca (Murphy, G. P., and W. J. Hrushesky. 1973. A murine renal cell carcinoma. J Natl Cancer Inst 50:1013), Jurkat (Gillis, S., and J. Watson. 1980. Biochemical and biological characterization of lymphocyte regulatory molecules. V. Identification of an interleukin 2-producing human leukemia T cell line. J Exp Med 152:1709) and WM9 (Forsberg, K., I. Valyi-Nagy, C. H. Heldin, M. Herlyn, and B. Westermark. 1993. Platelet-derived growth factor (PDGF) in oncogenesis: development of a vascular connective tissue stroma in xenotransplanted human melanoma producing PDGF-BB. Proc Natl Acad Sci USA 90:393) cell lines were obtained from a colleague at the Cleveland Clinic Foundation (CCF) and cultured in RPMI 1640 medium supplemented with 10% fetal calf serum (FCS). […] SSG has been described previously (Yi, T., M. K. Pathak, D. J. Lindner, M. E. Ketterer, C. Farver, and E. C. Borden. 2002. Anticancer activity of sodium stibogluconate in synergy with IFNs. J Immunol 169:5978).
NIH3T3 (Yi, et al., Blood 85, 87 (1995)), WM9 (Forsberg, et al., Proc. Nat. Acad Sci. USA 90, 393 (1993)), DU145 (Mickey, et al., Cancer Res. 37, 4049 (1977)), LoVo (Drewinko, et al., Cancer Res. 36, 467 (1976)), HEY (Buick, et al., Cancer Res. 45, 3668 (1985)), U251 (Yoshida, et al., Cancer 50, 410 (1982)), A549 (Giard, et al., J. Natl. Cancer Inst. 51, 1417 (1973)) and SK-N-SH (Helson, et al., Cancer Res. 35, 2594 (1975)) cell lines have been described and were cultured in RPMI 1640 supplemented with 10% fetal calf serum (FCS). For measurement of sodium stibogluconate effects on cell growth in vitro, cells were cultured in the absence (−) or presence (+) of various amounts of sodium stibogluconate for 6 days with viable cells quantified by MTT assays (Mosmann, J. Immunol. Methods 65, 55 (1983)). Percentages of growth inhibition by sodium stibogluconate were calculated (.+−.x

MKP1 = biological target: T1, MKP1 (Homo sapiens, UniProt P28562); assay: In vitro PTPase assay, GST/MKP1; assay type: biochemical
T1 construct: GST (N); made in house; host or cells: DH5a bacteria
T1 sequence (P28562 1-367): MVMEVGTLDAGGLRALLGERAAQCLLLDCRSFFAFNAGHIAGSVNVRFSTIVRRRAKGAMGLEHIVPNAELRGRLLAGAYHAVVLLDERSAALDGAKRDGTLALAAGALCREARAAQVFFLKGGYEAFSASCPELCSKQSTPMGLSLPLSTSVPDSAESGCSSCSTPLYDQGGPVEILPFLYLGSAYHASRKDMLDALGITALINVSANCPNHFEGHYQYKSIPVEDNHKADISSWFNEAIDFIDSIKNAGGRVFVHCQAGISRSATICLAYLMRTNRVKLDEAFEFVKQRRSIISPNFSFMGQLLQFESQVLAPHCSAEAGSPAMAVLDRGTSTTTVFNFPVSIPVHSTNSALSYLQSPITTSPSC
Description: In vitro PTPase activities were measured using the commercial protein tyrosine phosphatase assay kit (Upstate Biotechnology, Inc. (“UBI”)) following established procedure known to one of skill in the art. This assay measures the in vitro dephosphorylation of a synthetic phosphotyrosine peptide of the sequence Arg-Arg-Leu-Ile-Glu-Asp-Ala-Gle-Tyr-Ala-Ala-Arg-Gly, wherein the tyrosine is phosphorylated (SEQ ID NO: 3). Briefly, 0.01 µg of GST/PTPase fusion proteins was incubated in 50 μL of Tris buffer (10 mM Tris, pH 7.4) containing different concentrations of inhibitors or chemicals (0-1,000 μg/ml) at 22° C. for 10 minutes, followed by addition of 0.2 mM of the phosphotyrosine peptide and incubation at 22° C. for 18 hours. 100 μL of Malachite Green solution was added and incubated for 5 minutes, and the absorbance at 660 nm was measured after 5 minutes.
In vitro PTPase assays were used to determine the effects of levamisole (Sigma), pentamidine (American Pharmaceutical Partners, Inc.), and ketoconazole (Sigma) on recombinant PTPases, following established procedures (Pathak et al., J. Imumol. 167, 3391 (2001); Pathak et al., Leukemia 16, 2285 (2002), Yi et al., J. Immunol. 169, 5978 (2002)) using a synthetic phosphotyrosine peptide or DiFMUP as the substrate as detailed above in section I.A.2.

| Structure (SMILES) | effect on IFN-alpha activity against WM9 (WM9 cells; ketoconazole 40 μg/ml) | activity against WM9 cells (WM9 cells; ketoconazole 0.625-20 μg/ml, single agent or with IFN-alpha) | inhibition of MKP1 (MKP1) | IFN-alpha-induced growth inhibition of WM9 with pentamidine (WM9 cells; most obviously at 0.625-1.25 μg/ml) | WM9 cell growth (WM9 cells; SSG, 6 days, comparable conditions to Renca) | killing of WM9 cells (WM9 cells; single agent, 50 and 100 μg/ml, day 6) | inhibitory activity against MKP1 (MKP1) |
| --- | --- | --- | --- | --- | --- | --- | --- |
| CC(=O)N1CCN(c2ccc(OCC3COC(Cn4ccnc4)(c4ccc(Cl)cc4Cl)O3)cc2)CC1 (stereo not drawn) [ketoconazole] | minor augmenting effect on IFN-alpha activity | no apparent activity | substantial inhibition |  |  |  |  |
| N=C(N)c1ccc(OCCCCCOc2ccc(C(=N)N)cc2)cc1 [pentamidine] |  |  | substantial inhibition | augmented IFN-alpha-induced growth inhibition |  |  |  |
| O.O.O.O.O.O.O.O.O.O=C([O-])[C@@H]1[O][Sb]2([O-])([O][Sb]34([OH])[O][C@H]([C@H](O)CO)[C@H]([O]3)[C@H](C(=O)[O-])[O]4)[O][C@H]([C@H](O)CO)[C@@H]1[O]2.[Na+].[Na+].[Na+] [sodium stibogluconate] |  |  | no obvious effects |  | inhibited by SSG in a dose-dependent manner | killed all cells | no obvious inhibitory activity |
